Results: patent US5968763A, “Method for screening inhibitors of the enzyme which cleaves the anchor of surface proteins from gram positive bacteria” (The Rockefeller University, priority 1997, dated 1999)

Tested on: LPXTGX cleavage enzyme (carbonate extract of D471 membranes)
Assay: Cleavage of 125I-labeled LPSTGE synthetic peptide linked to beads (release of radiolabel) by carbonate extract of streptococcal membranes
Type: biochemical, M type 6 streptococcal strain D471 (Streptococcus pyogenes)
Settings: carbonate extract of the membranes as enzyme source, FIG. 3; for cleavage activity in the presence of inhibitor: 1 mM each
Experimental: The peptide was radiolabeled with ^125 I using Iodobeads and then the labeled peptide was purified on a Sephadex G10 column and covalently linked by its N-terminal end by EDC (ethyl-3-(3 […])carbodiimide HCl) to an extended arm on a commercially available bead (3M Emphase Biospheres AB1 from Pierce, Rockford, Ill.), and the excess radiolabel removed by washing the beads with 1 M NaCl buffer.
M type 6 streptococcal strain D471 was treated with 0.1 M sodium carbonate (pH 11.5) and incubated for 30 minutes at 0° C. to extract the streptococcal membranes.
The resulting extract was mixed with the labeled beads of Example 1 (50 μl sample, 50 μl 50 mM Tris HCl (pH 8.0) with 10 mM DTT).
The carbonate extract was chromatographed on a 20 HQ perfusion chromatography column, using a Biocad Sprint instrument (Perceptive Biosystem), employing a NaCl gradient from 0 mM to 500 mM (24.9 ml) followed by a 500 mM to 1000 mM (33.2 ml) gradient. To measure the enzyme activity found in the fractions, a 50 μl sample from each fraction was mixed in a reaction buffer in a final volume of 100 μl containing 5 mM DTT and 5 μl of the bead-substrate as described in Example 1. Control samples containing only buffer and the substrate were also mixed and incubated at 37° C. for 4 hours under constant slow rotation. The released radioactivity was then measured in 25 μl of the supernatant obtained after centrifugation. The specific activity was measured after subtracting the control values from the test samples.
FIG. 3 illustrates the enzymatic activity of the carbonate extract of the membranes (as the enzyme source) in the presence of various inhibitors and activators.

Structure (SMILES) | cleavage activity in the presence of inhibitor | further results
OC(CS)C(O)CS (stereo not shown) [DTT] |  | enzymatic (cleavage) activity in the presence of activator (5 mM DTT): enhanced
O=C(O)c1cc[c]([Hg][OH])cc1 [PHMB, parahydroxymercuribenzoic acid] | inhibited cleavage activity | 
O=S(=O)(O)c1cc[c]([Hg][OH])cc1 [PHMPS, parahydroxymercuriphenylsulfonic acid] | inhibited cleavage activity | 
[Ca+2] [calcium] |  | enzymatic (cleavage) activity in the presence of divalent cations (divalent cations such as calcium): enhanced
